Measurements: ChEMBL document CHEMBL4813979
Calls of active or inactive are those of the source. The rule behind the calls is not given here.

Legend:
[1] = biological target: Glycogen synthase kinase-3 beta (Mus musculus) (UniProt Q9WV60); test: Inhibition of GSK3-beta in mouse J774.1 cells assessed as reduction in LPS/IFN-gamma-induced NF-kappaB expression at 10 uM measured within 15 mins by Western blot analysis; type: cell-based
Mus musculus [2] = test: Anti-colitis activity against DSS-induced BALB/c mouse model of subchronic relapsing colitis assessed as increase in body weight at 100 mg/kg/day, po administered for 7 days in second week during 2 weeks DSS challenge and measured at the end of 2nd week; type: functional, organism-based; settings: time 7.0 day
Mus musculus [3] = test: Anti-colitis activity against DSS-induced BALB/c mouse model of subchronic relapsing colitis assessed as reduction in fecal blood at 100 mg/kg/day, po administered for 7 days in second week during 2 weeks DSS challenge and measured at the end of 2nd week; type: functional, organism-based; settings: time 7.0 day
Mus musculus [4] = test: Anti-colitis activity against DSS-induced BALB/c mouse model of subchronic relapsing colitis assessed as increase in softening of feces at 100 mg/kg/day, po administered for 7 days in second week during 2 weeks DSS challenge and measured at the end of 2nd week; type: functional, organism-based; settings: time 7.0 day
Mus musculus [5] = test: Anti-colitis activity against DSS-induced BALB/c mouse model of subchronic relapsing colitis assessed as effect on colon length at 100 mg/kg/day, po administered for 7 days in second week during 2 weeks DSS challenge and measured at the end of 2nd week; type: functional, organism-based; settings: time 7.0 day
Mus musculus [6] = test: Anti-colitis activity against DSS-induced BALB/c mouse model of subchronic relapsing colitis assessed as decrease in colon weight to length ratio at 100 mg/kg/day, po administered for 7 days in second week during 2 weeks DSS challenge and measured at the end of 2nd week; type: functional, organism-based; settings: time 7.0 day
Mus musculus [7] = test: Anti-colitis activity against DSS-induced BALB/c mouse model of subchronic relapsing colitis assessed as increase in body weight at 100 mg/kg/day, ip administered on days 1 and 3 of second week during 2 weeks DSS challenge and measured at the end of 2nd week; type: functional, organism-based; settings: time 1.0 weeks
Mus musculus [8] = test: Anti-colitis activity against DSS-induced BALB/c mouse model of subchronic relapsing colitis assessed as reduction in fecal blood at 100 mg/kg/day, ip administered on days 1 and 3 of second week during 2 weeks DSS challenge and measured at the end of 2nd week; type: functional, organism-based; settings: time 1.0 weeks
Mus musculus [9] = test: Anti-colitis activity against DSS-induced BALB/c mouse model of subchronic relapsing colitis assessed as increase in softening of feces at 100 mg/kg/day, ip administered on days 1 and 3 of second week during 2 weeks DSS challenge and measured at the end of 2nd week; type: functional, organism-based; settings: time 1.0 weeks
Mus musculus [10] = test: Anti-colitis activity against DSS-induced BALB/c mouse model of subchronic relapsing colitis assessed as effect on colon length at 100 mg/kg/day, ip administered on days 1 and 3 of second week during 2 weeks DSS challenge and measured at the end of 2nd week; type: functional, organism-based; settings: time 1.0 weeks

Sequence of Glycogen synthase kinase-3 beta (Mus musculus) (Q9WV60 whole entry, looked up): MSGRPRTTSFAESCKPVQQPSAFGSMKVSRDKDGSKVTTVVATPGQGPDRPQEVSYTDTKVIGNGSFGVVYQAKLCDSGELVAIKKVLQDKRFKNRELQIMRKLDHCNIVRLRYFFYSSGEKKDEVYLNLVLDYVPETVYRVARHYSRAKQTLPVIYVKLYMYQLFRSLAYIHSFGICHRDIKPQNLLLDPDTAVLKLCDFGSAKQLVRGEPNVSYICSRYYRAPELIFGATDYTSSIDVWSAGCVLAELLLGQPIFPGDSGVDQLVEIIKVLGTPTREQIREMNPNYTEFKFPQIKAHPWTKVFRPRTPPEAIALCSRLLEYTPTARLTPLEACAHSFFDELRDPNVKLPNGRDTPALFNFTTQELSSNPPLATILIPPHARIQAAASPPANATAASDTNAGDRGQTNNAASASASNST

For C[S+]([O-])CCCCCCN=C=S (stereo not given), the inhibition [1] was “Active”.

In the case of O=C(O)c1cc(/N=N/c2ccc(S(=O)(=O)Nc3ccccn3)cc2)ccc1O, the Activity (Mus musculus [2]) is reported as “inactive”, the Activity (Mus musculus [3]) is reported as “Active” and the Activity (Mus musculus [4]) is reported as “Active”. For the same compound, the Activity (Mus musculus [5]) was “inactive” and the Activity (Mus musculus [6]) was “Active”.

For S=C(S)N1CCCC1, the Activity (Mus musculus [7]) was “Active”, the Activity (Mus musculus [8]) was “Active” and the Activity (Mus musculus [9]) was “Active”. The Activity (Mus musculus [10]) was “inactive”.
